Here are results for 14 compounds from patent publication US20260027096A1, “PHD INHIBITORS” (Oxford University Innovation Limited, priority 2023, published 2026).

Assay [1] deals with KDM5B: lysine specific demethylase 5B (Homo sapiens (Human), UniProt Q9UGL1). Briefly: KDM5B LCMS demethylation assay.
Description: KDM5B enzyme reactions were performed under optimized buffer conditions (50 mM MES pH 7.0, 50 mM NaCl, 1 mM TCEP). […] The enzyme reaction was progressed for 30 minutes, and the reaction stopped by addition of formic acid to a final concentration of 1% (v/v). Control reactions included a 0.5% DMSO control and a reaction with a known inhibitor of KDM5B (10 mM KDOAM25, ^i).
(§2) 4 ml of enzyme reaction were injected and loaded onto a ZORBAX RRHD Eclipse Plus C18 column (Agilent Technologies, CA, US). Solvent A consisted of LCMS grade water containing 0.1% (v/v) formic acid and solvent B consisted of acetonitrile containing 0.1% (v/v) formic acid. […] The mass spectrometer was operated in the positive ion mode with a drying gas temperature of 280° C., drying gas flow rate of 13 L/min, nebulizer pressure of 40 psig, sheath gas temperature of 350° C., sheath gas flow rate of 12 L/min, capillary voltage of 4000 V, nozzle voltage of 1000 V. All acquired data were analyzed using Agilent MassHunter Qualitative Analysis (Version B.07.00) software.
In assay [2] the test system is HIF1-α in HEK293 T cells. Description: Immunoblots of HEK293 T cells. The assay is classed as cell-based. As to conditions: HEK293 T cells, 0.5, 1, 5, 10, 20, 50 and 100 μM, 18 hours. The procedure: Cells were grown to 90% confluency.
Protocols for cell culture and immunoblotting were performed using the established methods.
Background: In western blotting, separated proteins are transferred to a membrane and probed.

In assay [3] the target is KDM6B: lysine specific demethylase 6B (Homo sapiens (Human), UniProt O15054). Briefly: KDM6B LCMS demethylation assay.
Sequence of KDM6B: lysine specific demethylase 6B (O15054 1141-1590): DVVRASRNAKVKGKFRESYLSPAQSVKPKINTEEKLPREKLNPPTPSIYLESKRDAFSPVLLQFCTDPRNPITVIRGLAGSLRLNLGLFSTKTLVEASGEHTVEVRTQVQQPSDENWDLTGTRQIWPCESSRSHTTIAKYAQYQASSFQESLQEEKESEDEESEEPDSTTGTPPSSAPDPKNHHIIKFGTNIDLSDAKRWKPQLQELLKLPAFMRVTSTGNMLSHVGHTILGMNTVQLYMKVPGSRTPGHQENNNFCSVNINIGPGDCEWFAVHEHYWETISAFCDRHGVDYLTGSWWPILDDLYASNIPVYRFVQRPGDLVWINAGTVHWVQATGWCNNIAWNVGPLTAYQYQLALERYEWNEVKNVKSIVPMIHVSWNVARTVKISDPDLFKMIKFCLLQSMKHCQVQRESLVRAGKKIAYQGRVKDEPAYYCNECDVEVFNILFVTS
Description: The peptide substrate for KDM5B was a 21-mer histone-H3 peptide (ARTK(me3)[sequence]), as synthesized by Peptide Protein Research (Hampshire, UK). The KDM6B peptide substrate was a 17-mer histone-H3 peptide ([sequence](me3)[sequence]), as synthesized by GL Biochem (Shanghai) Ltd (Shanghai, China).
KDM6B reactions were performed under optimized buffer conditions (50 mM MES pH 7.0). […] The enzyme reaction was progressed for 30 minutes and the reaction stopped by addition of formic acid to a final concentration of 1% (v/v). Control reactions included a 0.5% DMSO control and a reaction with a known inhibitor of KDM6B (10 mM GSKJ1,^j).
as §2
In assay [4] the target is KDM4A: lysine specific demethylase 4A (Homo sapiens (Human), UniProt O75164). Briefly: KDM4A LCMS demethylation assay.
Sequence of KDM4A: lysine specific demethylase 4A (O75164 1-359): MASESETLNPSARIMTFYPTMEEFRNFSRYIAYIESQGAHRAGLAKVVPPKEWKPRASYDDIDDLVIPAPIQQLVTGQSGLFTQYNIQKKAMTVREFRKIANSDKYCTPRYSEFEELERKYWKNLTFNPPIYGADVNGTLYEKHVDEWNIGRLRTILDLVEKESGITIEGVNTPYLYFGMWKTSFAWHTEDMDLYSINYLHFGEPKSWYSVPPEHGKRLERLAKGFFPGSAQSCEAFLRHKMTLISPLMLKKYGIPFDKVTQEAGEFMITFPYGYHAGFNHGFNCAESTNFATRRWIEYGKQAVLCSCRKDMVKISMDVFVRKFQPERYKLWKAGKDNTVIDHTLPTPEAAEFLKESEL
Description: as §2
The subject of assay [5] is other 2OG oxygenases (off-target sites commonly inhibited by existing PHD inhibitors). Briefly: Selectivity versus other 2OG oxygenases / off-target sites (FIG. 14). Type of assay: biochemical.
Assay [6] has as its system HIF1-α in Hep3B cells. Briefly: Immunoblots of Hep3B cells. The assay is classed as cell-based. The following applies: 100 μM and 20 μM, 3 hours. The procedure:
Example 159—Immunoblots of Hep3B cells treated with compounds of the invention Hep3B cells were treated with 117, 119, 122 and 123 of the invention (Examples 93, 95, 98 and 99) at 100 μM (A) and 20 μM (B) PHD inhibitors for 3 hours. The blots show protein levels of HIF1-α and β-actin at the 3rd hour after treatment.

The target in assay [7] is PHD2 (Homo sapiens (Human), UniProt Q9GZT9). Description: PHD2 RF-MS (RapidFire LC-MS) hydroxylation assay. Type of assay: biochemical. The procedure:
In brief, cDNA encoding for the catalytic domain of tPHD2 (181-426 residues) was cloned into the pET28a (+)/pET24a (+) vectors (Novagen), to enable production of tPHD2 (residues 181-426) protein with/without an N-terminal His6-tag. The tPHD2 (residues 181-426) encoding construct was transformed into the Escherichia coli BL21 DE3 cell line; protein production was induced with 0.5 mM […] (3-5 hr at 28° C.). […] The protein was exchanged into 50 mM Tris-HCl buffer (pH 7.5) and concentrated to % 40 mg/ml.
Tris(hydroxymethyl)aminomethane was from Fisher. Ferrous ammonium sulfate (FAS), 2-oxoglutarate (2OG) and L-ascorbic acid were from Sigma Aldrich; solutions of these were prepared freshly each day. All inhibition assays were carried out in 384-well polypropylene plates (Greiner Bio-One). PHD2 assays were performed in assay buffer (50 mM Tris. Cl pH 7.5, 50 mM NaCl). […] The final assay concentration of DMSO was kept constant at 0.5%. PHD2 protein was prepared at a concentration of 300 nM in assay buffer and 25 μl dispensed across each 384-well assay plate. The PHD2 solution was allowed to equilibrate with the inhibitors for 15 minutes at room temperature; the enzyme reaction then initiated by dispense of 25 μl of substrate (20 μM FAS, 200 µM L-ascorbic acid, 10 μM CODD peptide and 20 μM 2OG in the assay buffer. Enzyme reactions were allowed to proceed for 20 minutes at room temperature and the reaction terminated by addition of 10% formic acid (5 μl). Assay plates were then transferred to a RapidFire RF360 sampling robot (Agilent) connected to an Agilent 6530 accurate mass quadrupole-time-of-flight (Q-TOF) mass spectrometer. Assay samples were aspirated under vacuum and loaded onto a C4 solid phase extraction (SPE) cartridge. After loading the C4 SPE was washed with 0.1% formic acid in water to remove non-volatile buffer salts and then peptide was eluted from the SPE with 85% acetonitrile, 15% water containing 0.1% formic acid onto the mass spectrometer. Peptide charge states were monitored in positive mode. Ion chromatogram data were extracted for the +2 charge state and peak area data integrated using RapidFire Integrator software (Agilent). % conversion of the CODD peptide substrate to the +16 hydroxylated peptide was calculated using the equation: % conversion=100×hydroxylated/(hydroxylated+non-hydroxylated peptide). IC50 values were determined from non-linear regression plots using GraphPad prism.
Example 158—Structure activity relationship (SAR) studies for PHD inhibition SAR studies for PHD inhibition were carried out on the compounds of the invention. Compounds were screened against PHD2 using the RF-MS hydroxylation assay.

For assay [8], the system named is human THP-1 cells. Briefly: Proliferation and apoptosis of THP-1 cells. The assay is classed as cell-based. An excerpt: (§1) Viable cells were counted by trypan blue exclusion at the indicated time points. To analyse cells undergoing apoptosis, cells were suspended in binding buffer containing PE-conjugated Annexin-V or FITC-conjugated Annexin-V, and either PI or DAPI.
To determine consequences of Daprodustat (2) and IOX5 (68, example 46) treatment on AML cells driven by the MLL-AF9→MEIS1/HOXA9 axis, mouse iMLL-AF9-and Meis1Hoxa9-transformed AML cells were employed, as well as human THP-1 cells, which harbour the MIL-AF9 translocation. […] Thus, providing compelling evidence that PHD inhibition compromises AML cells driven by the MLL-AF9→MEIS1/HOXA9 axis.

Assay [9] relates to MV411 AML cells in NBSGW recipient mice. Briefly: MV411 xenotransplantation in NBSGW mice, combination with Venetoclax. Type of assay: in vivo, mouse. As to conditions: 14 days treatment; IOX5 i.p. twice daily, Venetoclax o.g. once daily. The procedure: 14 days following transplantation, recipient mice were treated with IOX5 (68, example 46), Venetoclax or vehicle control. Dosing regimen consisted of 2× daily via i.p. injection (IOX5 (68, example 46) or vehicle) and/or 1× daily via o.g. (Venetoclax or vehicle). […] (E-G) Percentage of human CD45+CD33+CD14+ cells in the BM, spleen and liver, respectively (n=5). (H) Survival curve of mice treated with IOX5 (68, example 46), Venetoclax, IOX5 (68, example 46)+Venetoclax or vehicle control (n=6-7). (I-J) Proliferation and Annexin-V+DAPI+analyses, respectively, of THP-1 cells treated with Ven, IOX5, FIH inhibitor (FIHi; DM-NOFD), IOX5 (68, example 46)+FIHi, IOX5 (68, example 46)+Ven, FIHi+Ven, IOX5 (68, example 46)+FIHi+Ven or vehicle control (n=6). Statistical significance represented as in (A-B). Data represent mean±SEM; *p<0.05; ** p<0.01; *** p<0.001; **** p<0.0001.
100,000 THP-1 cells, 100,000 OCI-AM3 cells or 100,000 MV411 cells (for combination experiments) were tail vein injected into non-irradiated 10-to 12-week-old mixed gender NBSGW mice and began drug treatment 14 days after transplantation. […] Mice were culled 5 weeks after transplantation.
Mice in combination treatment experiments with Venetoclax (ABT-199) (MCE) were dosed once daily with 100 mg/kg via oral gavage (o.g.).
Further to findings in Example 170, the efficacy of IOX5 (68, example 46)+Venetoclax combination in vivo was investigated (FIG. 38D). MV411 AML cells were engrafted (with MLL-AF4 and FLT3-ITD mutation) and the recipient mice were treated with a vehicle, IOX5 (68, example 46), Venetoclax, and a combination of IOX5 (68, example 46)+Venetoclax.

Assay [10] relates to THP-1, MOLM13, OCI-AML3 and MV411 cells. Briefly: Proliferation and apoptosis of human AML cell lines THP-1, MOLM13, OCI-AML3 and MV411. Type of assay: cell-based. The following applies: 50 μM, single agent. The procedure:
(A-B) Proliferation and apoptosis of human AML cell lines THP-1, MOLM13, OCI-AML3 and MV411 treated with vehicle control and 50 μM Molidustat (5). Data represent mean±SEM; **** p<0.0001.
(A-B) Proliferation and apoptosis of human AML cell lines MOLM-13, OCI-AML3, MV411 and THP-1 treated with vehicle control, 50 μM Daprodustat (2), 50 μM IOX5 (68, example 46), 0.1 μM Venetoclax (MOLM-13 and MV411), 0.01 μM Venetoclax (OCI-AML3 and THP-1) and combination therapy. (C-D) Early-([…]) and late stage (PI^+ Annexin^+) apoptosis of human AML patient samples treated with vehicle control, 50 μM Daprodustat (2), 50 μM IOX5 (68, example 46), 0.01 μM Venetoclax and combination therapy. Data represent mean±SEM; * p<0.05; ** p<0.01, *** p<0.001, **** p<0.0001.
as §1

Sequence of PHD2 (Q9GZT9 181-426): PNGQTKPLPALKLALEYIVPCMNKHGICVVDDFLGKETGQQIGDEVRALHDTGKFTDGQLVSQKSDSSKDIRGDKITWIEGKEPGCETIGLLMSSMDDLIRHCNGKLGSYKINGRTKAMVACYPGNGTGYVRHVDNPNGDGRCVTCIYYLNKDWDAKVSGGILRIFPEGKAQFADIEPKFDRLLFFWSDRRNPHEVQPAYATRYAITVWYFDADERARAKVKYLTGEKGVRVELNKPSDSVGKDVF
Sequence of KDM5B: lysine specific demethylase 5B (Q9UGL1 1-822): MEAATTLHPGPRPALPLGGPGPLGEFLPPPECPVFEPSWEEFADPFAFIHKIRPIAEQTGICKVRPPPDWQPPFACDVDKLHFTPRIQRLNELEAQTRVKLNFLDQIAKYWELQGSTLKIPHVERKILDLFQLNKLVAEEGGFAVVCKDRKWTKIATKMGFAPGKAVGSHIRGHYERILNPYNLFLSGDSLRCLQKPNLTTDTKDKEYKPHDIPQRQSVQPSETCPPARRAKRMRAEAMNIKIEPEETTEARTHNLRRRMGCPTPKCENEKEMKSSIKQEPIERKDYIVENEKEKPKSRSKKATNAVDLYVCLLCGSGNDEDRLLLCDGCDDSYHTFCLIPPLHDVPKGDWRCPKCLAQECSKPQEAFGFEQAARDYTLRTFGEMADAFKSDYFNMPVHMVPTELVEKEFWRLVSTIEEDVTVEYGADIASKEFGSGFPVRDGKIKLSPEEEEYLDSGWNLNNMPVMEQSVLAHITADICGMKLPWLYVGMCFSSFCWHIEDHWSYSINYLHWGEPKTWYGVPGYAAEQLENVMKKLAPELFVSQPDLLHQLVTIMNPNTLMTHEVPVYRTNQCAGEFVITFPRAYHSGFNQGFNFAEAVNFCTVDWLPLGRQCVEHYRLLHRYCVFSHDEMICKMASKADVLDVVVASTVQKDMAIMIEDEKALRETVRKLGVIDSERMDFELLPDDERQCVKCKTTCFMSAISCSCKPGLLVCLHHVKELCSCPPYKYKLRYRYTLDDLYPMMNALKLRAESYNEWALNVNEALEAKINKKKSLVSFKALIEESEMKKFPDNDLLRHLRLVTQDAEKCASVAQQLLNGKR

Regarding `O=C(NCC1CCC(C(F)(F)F)CC1)c1cnc(-n2cccn2)cc1O` (stereo not drawn) [Compound 68, 4-Hydroxy-6-(1H-pyrazol-1-yl)-N-((4-(trifluoromethyl)cyclohexyl)methyl) nicotinamide], the IC50 in [1], in assay [3] and in [4] was more than 100000 nM in each case. For the same compound, the “protein level of HIF1-α (immunoblot)” value in assay [2] is recorded as “increase cellular HIF-1α”. In addition, the “IC50 for off-target sites” value in assay [5] is reported as “very high IC50”.

Consider `O=C(NCc1ccc(-c2ccccc2)cc1)c1cnc2c(cnc3ccnn32)c1O` [Compound 117, N-([1,1′-Biphenyl]-4-ylmethyl)-6-hydroxypyrazolo[1,5-a]pyrido[3,2-e]pyrimidine-7-carboxamide], for which, in [6], the “protein level of HIF1-α (immunoblot)” value is reported as “increase HIF-1α”. The half-inhibitory concentration (IC50) in assay [7] was 1 to 1000 nM.

For the compound `O=C(Nc1ccc(-c2ccccc2)cc1)c1cnc2c(cnc3ccnn32)c1O` [Compound 119, N-([1,1′-Biphenyl]-4-yl)-6-hydroxypyrazolo[1,5-a]pyrido[3,2-e]pyrimidine-7-carboxamide], the “protein level of HIF1-α (immunoblot)” value in assay [6] is “increase HIF-1α”. The compound also gave a 50% inhibitory concentration (IC50) in [7] of 1 to 1000 nM.

Take `Cc1cc2nc(C)c3c(O)c(C(=O)NCc4ccc(-c5ccccc5)cc4)cnc3n2n1` [Compound 122, N-([1,1′-Biphenyl]-4-ylmethyl)-6-hydroxy-2,5-dimethylpyrazolo[1,5-a]pyrido[3,2-e]pyrimidine-7-carboxamide]: the “protein level of HIF1-α (immunoblot)” value in assay [6] is reported as “increase HIF-1α”. The IC50 in [7] fell in the range of 1 to 1000 nM.

As to `Cc1cc2nc(C)c3c(O)c(C(=O)NCc4ccc(C(F)(F)F)cc4)cnc3n2n1` [Compound 123, 6-Hydroxy-2,5-Dimethyl-N-(4-(trifluoromethyl)benzyl) pyrazolo[1,5-a]pyrido[3,2-e]pyrimidine-7-carboxamide], in [6], the “protein level of HIF1-α (immunoblot)” value is reported as “increase HIF-1α”. Also, in assay [7], the IC50 was in the range of 1 to 1000 nM.

In turn, `O=C(O)c1cnn(-c2ncc(C(=O)NCC3CCC(C(F)(F)F)CC3)cc2O)c1` (stereo not drawn) [Compound 129, 1-(3-hydroxy-5-(((4-(trifluoromethyl)cyclohexyl)methyl)carbamoyl)pyridin-2-yl)-1H-pyrazole-4-carboxylic acid] came in with an IC50 in [7] of 1 to 1000 nM.

In the case of `N#Cc1cnc(-n2cc(C(=O)NCc3ccc(-c4ccccc4)cc3)cn2)nc1O` [Compound 158, N-([1,1′-biphenyl]-4-ylmethyl)-1-(5-cyano-4-hydroxypyrimidin-2-yl)-1H-pyrazole-4-carboxamide], in assay [7], the IC50 lay within 1 to 1000 nM.

Compound `N#Cc1cnc(-n2cc(C(=O)NCc3ccc(-c4ccc(C(=O)O)cc4)nc3)cn2)nc1O` [Compound 162, 4-(5-((1-(5-cyano-4-hydroxypyrimidin-2-yl)-1H-pyrazole-4-carboxamido)methyl)pyridin-2-yl)benzoic acid] registered an IC50 in assay [7] of 1000 to 10000 nM.

On to `Cc1cc2nc(C)c3c(O)c(C(=O)NCc4ccc(-c5cccc(N6CCOCC6)c5)nc4)cnc3n2n1` [Compound 176, 6-hydroxy-2,5-dimethyl-N-((6-(3-morpholinophenyl)pyridin-3-yl)methyl) pyrazolo[1,5-a]pyrido[3,2-e]pyrimidine-7-carboxamide], for which the IC50 in [7] is 1000 to 10000 nM.

In turn, `COc1ccc([C@H](C)NC(=O)c2cnc3c(c(C)nc4cc(C)nn43)c2O)cc1` [Compound 180, (S)-6-hydroxy-N-(1-(4-methoxyphenyl)ethyl)-2,5-dimethylpyrazolo[1,5-a]pyrido[3,2-e]pyrimidine-7-carboxamide] displayed an IC50 in assay [7] of 1 to 1000 nM.

On to `COC(=O)C(=O)N[C@H](Cc1ccccc1)C(=O)OC` [DM-NOFD, dimethyl N-oxalyl-D-phenylalanine], for which the “proliferation and survival (Annexin-V+DAPI+) of AML cells” value in assay [8] (THP-1 cells, FIH inhibitor DM-NOFD alone or combined) was “no impact on proliferation and survival of AML cells”.

Consider `CC1(C)CCC(CN2CCN(c3ccc(C(=O)NS(=O)(=O)c4ccc(NCC5CCOCC5)c([N+](=O)[O-])c4)c(Oc4cnc5[nH]ccc5c4)c3)CC2)=C(c2ccc(Cl)cc2)C1` [Venetoclax, venetoclax, reference compound], for which, in assay [9], the leukaemic burden entry is recorded as “decreased leukaemic burden” and the “survival of recipient mice” value is “extended survival of the recipient mice”.

As for `O=c1c(-n2ccnn2)c[nH]n1-c1cc(N2CCOCC2)ncn1` [molidustat], in assay [10], the “cell death (apoptosis)” value is recorded as “induced cell death” and the proliferation result is “reduced proliferation”.

On to `Cc1nc(C(=O)NCC(=O)O)c(O)c2ccc(Oc3ccccc3)cc12` [roxadustat], for which the proliferation entry in assay [8] (THP-1, 50 μM) is “strong anti-leukaemic activity”.

A word on the IC50: it is the concentration at which inhibition is half-maximal. Low values mean higher potency, high ones lower potency.
